Results reported in patent US7271192B2, “Substituted 2-pyrrolidine-2-yl-1H-indole compounds” (Gruenenthal GmbH, priority 2001, dated 2007).

Target: T1, nNOS (Rattus norvegicus, UniProt P29476)
T1 construct: Rat cerebelli were used as the starting tissue; from tissue; host or cells: rat cerebellum (20,000 g supernatant of homogenate)
Assay: NOS assay (HTS NOS assay, radioactive arginine, filter plate)
Assay type: biochemical
Settings: enzyme preparation from rat cerebelli
Description: This assay allows the determination of the percentage inhibition of NO synthase by an active compound by means of measurement of the NOS activity under the action of the active compound. In this procedure, NO synthase is mixed together with radioactively labelled arginine and the active compound under suitable conditions. After discontinuation of the NO formation reaction at a given point in time, the amount of unreacted arginine is determined directly or indirectly. Comparison of this amount with the amount of arginine which remains in a sample from the mixture of NOS and arginine without the addition of active compound and under otherwise identical conditions gives the % inhibition of NO synthase by the active compound tested. This assay can be carried out as follows:
incubation of NO synthase with labelled arginine as the substrate in a reaction vessel,
separation of the labelled arginine from the labelled citrulline possibly formed as the product of the enzymatic reaction at a point in time at which the concentration of citrulline increases,
measurement of the amount of arginine separated off in the particular case.
The separation is carried out via a filter plate membrane.
This NOS assay is particularly suitable for a “high throughput screening” (HTS) on microtitre plates (MTP).
In this HTS NOS assay, radioactive arginine is used as the substrate. The assay volume can be chosen in the range between 25 μl and 250 μl, depending on the nature of the microtitre plate (MTP). Cofactors and coenzymes are added, depending on the enzyme source used. The incubation of the batches in this microtitre plate (assay MTP) according to step (a) is carried out at room temperature and is between 5 and 60 minutes, depending on the enzyme activity (units) used. At the end of the incubation (step (a)), the plate is placed in a cell harvester equipped with an MTP which has a cation exchange membrane as the filter base (filter MTP). All the batches of the assay MTP are transferred into this filter MTP and filtered with suction over a cation exchanger filter plate, a paper filter loaded with phosphate groups. The filter MTP is then washed with buffer or water. The arginine substrate which remains is bonded to the cation exchanger with the aid of this procedure, while the radioactive citrulline formed enzymatically is washed out quantitatively. After drying of the filter MTP and addition of scintillation liquid, the arginine bonded can be counted on a scintillation counter. A non-inhibited NOS reaction is reflected in a low radioactivity. An inhibited enzyme reaction means that the radioactive arginine has not been reacted, i.e. there is a high radioactivity on the filter.
Arginine, L-[2,3,4-^3H]-monohydrochloride; order no. NET-1123, NEN • CaCl2, anhydrous; order no. 2388.1000; Merck KGaA • 1,4-dithiothreitol (DTT), order no. 708984; ROCHE • Na2EDTA-dihydrate; order no. 03680; FLUKA • HEPES, order no. H-3375; SIGMA • NADPH, tetrasodium salt; order no. 1585363; ROCHE • TRIS; ORDER no. 93349; FLUKA
Enzyme preparation buffer: 50 mM Tris-HCl with 1 mM EDTA: The pH of the buffer was adjusted to 7.4 at 4° C.
Incubation buffer (medium): 50 mM HEPES with 1 mM EDTA; 1.25 mM CaCl2 and 1 mM dithiothreitol.
The pH of the buffer was adjusted to 7.4 at 25° C.
Rat cerebelli were used as the starting tissue. The animals were narcotized and sacrificed, the brain tissue, the cerebellum, was removed, 1 ml of enzyme preparation buffer was added (4° C.) per rat cerebellum and the tissue was broken down with a Polytron homogeniser for 1 min at 6,000 rpm. Centrifugation at 4° C. for 15 min at 20,000 g and subsequent decanting of the supernatant and freezing in portions at −80° C. (precipitate discarded) then took place.
Compounds according to the invention were tested for nNOS inhibition in the NOS assay described above.

inhibition at 10 µM [%] | Structure (SMILES)
45 | CCN(CC)CCn1c(C2CCCN2C(=O)c2ccco2)c(-c2ccccc2)c2cc(Cl)ccc21 (centres unmarked) [Example 9, {2-[5-Chloro-1-(2-diethylamino-ethyl)-3-phenyl-1H-indol-2-yl]-pyrrolidin-1-yl}-furan-2-yl-methanone]
34 | CCOC(=O)CCC(=O)N1CCCC1c1c(-c2ccccc2)c2cc(Cl)ccc2n1CCN(CC)CC (centres unmarked) [Example 12, 4-{2-[5-Chloro-1-(2-diethylamino-ethyl)-3-phenyl-1H-indol-2-yl]-pyrrolidin-1-yl)-4-oxo-butyric acid ethyl ester]
47 | CCN(CC)CCn1c(C2CCCN2C(=O)c2ccc(F)cc2)c(-c2ccccc2)c2cc(Cl)ccc21 (centres unmarked) [Example 13, {2-[5-Chloro-1-(2-diethylamino-ethyl)-3-phenyl-1H-indol-2-yl]-pyrrolidin-1-yl}-(4-fluoro-phenyl)-methanone]
38 | CCN(CC)CCn1c(C2CCCN2C(=O)C2CCC2)c(-c2ccccc2)c2cc(Cl)ccc21 (centres unmarked) [Example 15, {2-[5-Chloro-1-(2-diethylamino-ethyl)-3-phenyl-1H-indol-2-yl]-pyrrolidin-1-yl}-cyclobutyl-methanone]
36 | CCN(CC)CCn1c(C2CCCN2C(=O)c2ccc(Cl)nc2)c(-c2ccccc2)c2cc(Cl)ccc21 (centres unmarked) [Example 17, {2-[5-Chloro-1-(2-diethylamino-ethyl)-3-phenyl-1H-indol-2-yl]-pyrrolidin-1-yl)-(6-chloro-pyridin-3-yl)-methanone]
35 | CCCCCC(=O)N1CCCC1c1c(-c2ccccc2)c2cc(Cl)ccc2n1CCN(CC)CC (centres unmarked) [Example 20, 1-{2-[5-Chloro-1-(2-diethylamino-ethyl)-3-phenyl-1H-indol-2-yl]-pyrrolidin-1-yl}-hexan-1-one]
51 | CCN(CC)CCn1c(C2CCCN2C(=O)c2cc(OC)cc(OC)c2)c(-c2ccccc2)c2cc(Cl)ccc21 (centres unmarked) [Example 26, {2-[5-Chloro-1-(2-diethylamino-ethyl)-3-phenyl-1H-indol-2-yl]-pyrrolidin-1-yl}-(3,5-dimethoxy-phenyl)-methanone]
41 | CCOc1ccc(C(=O)N2CCCC2c2c(-c3ccccc3)c3cc(Cl)ccc3n2CCN(CC)CC)cc1 (centres unmarked) [Example 28, {2-[5-Chloro-1-(2-diethylamino-ethyl)-3-phenyl-1H-indol-2-yl]-pyrrolidin-1-yl}-(4-ethoxy-phenyl)-methanone]
41 | COCCOCC(=O)N1CCCC1c1c(-c2ccccc2)c2cc(Cl)ccc2n1C (centres unmarked) [Example 35, 1-[2-(5-Chloro-1-methyl-3-phenyl-1H-indol-2-yl)-pyrrolidin-1-yl]-2-(2-methoxy-ethoxy)-ethanone]
35 | Cn1c(C2CCCN2C(=O)C2CC2)c(-c2ccccc2)c2cc(Cl)ccc21 (centres unmarked) [Example 48, [2-(5-Chloro-1-methyl-3-phenyl-1H-indol-2-yl)-pyrrolidin-1-yl]-cyclopropyl-methanone]
54 | CC#CCn1c(C2CCCN2C(=O)COC)c(-c2ccccc2)c2cc(Cl)ccc21 (centres unmarked) [Example 73, 1-[2-(1-But-2-ynyl-5-chloro-3-phenyl-1H-indol-2-yl)-pyrrolidin-1-yl]-2-methoxy-ethanone]
